Data as given in patent US20230172206A1 (BASF SE, priority 2020, published 2023).

Legend:
[1] = tested on: Phakopsora pachyrhizi (F129L); assay: Protective control of soybean rust on soybeans (PHAKPA P6); format: in vivo; conditions: for % PHAKPA (F129L) Disease level P6 at 4 ppm: protective P6, 4 ppm; for % PHAKPA (F129L) Disease level P6 at 16 ppm: protective P6, 16 ppm
[2] = tested on: Phakopsora pachyrhizi (F129L); assay: Protective control of soybean rust on soybeans (PHAKPA P2); format: in vivo; conditions: for % PHAKPA (F129L) Disease level P2 at 4 ppm: protective P2, 4 ppm; for % PHAKPA (F129L) Disease level P2 at 16 ppm: protective P2, 16 ppm

SMILES | % PHAKPA (F129L) Disease level P6 at 4 ppm ([1]; F129L isolate) [%] | % PHAKPA (F129L) Disease level P6 at 16 ppm ([1]; F129L isolate) [%] | % PHAKPA (F129L) Disease level P2 at 4 ppm ([2]; F129L isolate) [%] | % PHAKPA (F129L) Disease level P2 at 16 ppm ([2]; F129L isolate) [%] | % PHAKPA (F129L) Disease level P6 at 4 ppm ([1]; soybean rust F129L isolate) [%] | % PHAKPA (F129L) Disease level P6 at 16 ppm ([1]; soybean rust F129L isolate) [%] | % PHAKPA (F129L) Disease level P2 at 4 ppm ([2]; soybean rust F129L isolate) [%] | % PHAKPA (F129L) Disease level P2 at 16 ppm ([2]; soybean rust F129L isolate) [%] | further results
CO/C=C(/C(=O)OC)c1cccc(C)c1CO/N=C(\C)c1cc(F)c(F)cc1CC(F)(F)F [compound 405] | 70 | 27 | 97 | 27 |  |  |  |  | 
CO/N=C(/C(=O)OC)c1cccc(C)c1CO/N=C(\C)c1cccc(C(C)(F)F)c1 [compound 302] |  |  |  |  | 47 | 3 | 47 | 4 | 
CO/C=C(/C(=O)OC)c1cccc(C)c1CO/N=C(\C)c1ccc(Cl)c(Cl)c1C(F)(F)F [compound 430] | 37 | 17 | 22 | 6 |  |  |  |  | 
CNC(=O)/C(=N/OC)c1cccc(C)c1CO/N=C(\C)c1c(F)cc(Br)cc1C(F)(F)F [compound 358] |  |  |  |  | 83 | 18 | 77 | 17 | 
CO/C=C(/C(=O)OC)c1cccc(C)c1CO/N=C(\C)c1ccc(-c2ccc(F)cc2)cc1C(F)(F)F [compound 432] | 13 | 3 | 12 | 0 |  |  |  |  | 
CNC(=O)/C(=N/OC)c1cccc(C)c1CO/N=C(\C)c1ccc(Cc2ccccc2)cc1OC(F)(F)F [compound 419] | 60 | 12 | 40 | 18 |  |  |  |  | 
CO/C=C(/C(=O)OC)c1cccc(C)c1CO/N=C(\C)c1ccc(Br)cc1C(F)(F)F [compound 445] | 30 | 2 | 15 | 1 |  |  |  |  | 
CNC(=O)/C(=N/OC)c1cccc(C)c1CO/N=C(\C)c1c(Cl)ccc(F)c1OC(F)(F)F [compound 440] | 73 | 23 | 93 | 23 |  |  |  |  | 
CNC(=O)/C(=N/OC)c1cccc(C)c1CO/N=C(\C)c1ccccc1C#N [compound 225] |  |  |  |  | 100 | 97 | 83 | 27 | 
CNC(=O)/C(=N/OC)c1cccc(C)c1CO/N=C(\CC(C)C)c1cccc(C(F)(F)F)c1 [compound 235] |  |  |  |  | 87 | 77 | 100 | 73 | 
CO/N=C(/C(=O)OC)c1cccc(C)c1CO/N=C(\C)c1ccc(OC(F)(F)F)cc1Cl [compound 268] |  |  |  |  | 60 | 17 | 63 | 6 | 
CO/N=C(/C(=O)OC)c1cccc(C)c1CO/N=C(\C)c1ccc(F)cc1F [compound 266] |  |  |  |  | 90 | 43 | 67 | 18 | 
CNC(=O)/C(=N/OC)c1cccc(C)c1CO/N=C(\C)c1cc(F)ccc1Br [compound 248] |  |  |  |  | 30 | 2 | 33 | 2 | 
CNC(=O)/C(=N/OC)c1cccc(C)c1CO/N=C(\C)c1ccc(/C(C)=N\OC)cc1OC(F)(F)F [compound 415] | 67 | 11 | 47 | 5 |  |  |  |  | 
CO/N=C(/C(=O)OC)c1cccc(C)c1CO/N=C(\C)c1c(F)cccc1Cl [compound 283] |  |  |  |  | 87 | 22 | 83 | 30 | 
CNC(=O)/C(=N/OC)c1cccc(C)c1CO/N=C(\C)c1cccc(F)c1OC(F)(F)F [compound 354] |  |  |  |  | 21 | 4 | 17 | 2 | 
CNC(=O)/C(=N/OC)c1cccc(C)c1CO/N=C(\CC(F)(F)F)c1ccccc1 [compound 380] | 60 | 12 | 53 | 5 |  |  |  |  | 
CO/N=C(/C(=O)OC)c1cccc(C)c1CO/N=C(\C)c1ccc(C#N)cc1C(F)(F)F [compound 423] | 93 | 53 | 100 | 57 |  |  |  |  | 
CO/N=C(/C(=O)OC)c1cccc(C)c1CO/N=C(\C)c1ccc(Cl)cc1C(F)(F)F [compound 304] |  |  |  |  | 100 | 37 | 53 | 28 | 
CO/C=C(/C(=O)OC)c1cccc(C)c1CO/N=C(\C)c1cccc(C(F)(F)F)c1 [compound 231] |  |  |  |  | 2 | 0 | 0 | 0 | PHAKPA (F129L) Disease level (%) P6 at 4 ppm ([1]; protective, inoculation six days after spraying, 4 ppm, % diseased leaf area): 2%; PHAKPA (F129L) Disease level (%) P2 at 4 ppm ([2]; protective, inoculation 2 days after spraying, 4 ppm, % diseased leaf area): 0%
CO/N=C(/C(=O)OC)c1cccc(Br)c1CO/N=C(\C)c1ccccc1 [compound 395] | 67 | 18 | 43 | 4 |  |  |  |  | 
CNC(=O)/C(=N/OC)c1cccc(C)c1CO/N=C(\C)c1ccc(-c2ccccc2)cc1C(F)(F)F [compound 413] | 33 | 15 | 40 | 15 |  |  |  |  | 
CO/C=C(/C(=O)OC)c1cccc(C)c1CO/N=C(\C)c1ccccc1C(F)(F)F [compound 244] |  |  |  |  | 15 | 2 | 14 | 0 | PHAKPA (F129L) Disease level (%) P6 at 16 ppm ([1]; protective, inoculation six days after spraying, 16 ppm, % diseased leaf area): 2%; PHAKPA (F129L) Disease level (%) P2 at 16 ppm ([2]; protective, inoculation 2 days after spraying, 16 ppm, % diseased leaf area): 0%
CO/N=C(/C(=O)OC)c1cccc(C)c1CO/N=C(\C)c1ccc(Cc2ccccc2)cc1C(F)(F)F [compound 408] | 33 | 13 | 30 | 12 |  |  |  |  | 
CO/N=C(/C(=O)OC)c1cccc(C)c1CO/N=C(\C)c1c(F)cc(F)cc1OC(F)(F)F [compound 361] |  |  |  |  | 88 | 31 | 80 | 18 | 
CO/C=C(/C(=O)OC)c1cccc(C)c1CO/N=C(\C)c1c(F)cccc1C(F)(F)F [compound 390] | 18 | 2 | 22 | 0 |  |  |  |  | 
CO/N=C(/C(=O)OC)c1cccc(C)c1CO/N=C(\C)c1c(Cl)cc(Cl)cc1OC(F)(F)F [compound 427] | 60 | 47 | 100 | 90 |  |  |  |  | 
CNC(=O)/C(=N/OC)c1cccc(C)c1CO/N=C(\C)c1ccccc1C1(C)CC1 [compound 296] |  |  |  |  | 100 | 83 | 100 | 40 | 
